The subject of one data set is HCT-15 (colon cancer). The experiment in a line: In vitro cytotoxicity test (MTT) against human tumour cell line HCT-15. Format: cell-based. Conditions: HCT-15, 24 h contact, 48 h re-growth. Here is the method: Human tumour cell lines A549 (lung cancer), HCT-15 (colon cancer) and MCF-7 (breast cancer) have been obtained from the Developmental Therapeutics Program of the National Cancer Institute (Rockville, Md., USA). Cells were routinely grown with RPMI 1640 medium supplemented with 10% foetal calf serum, both obtained from Biochrom AG (Berlin, Germany). They were grown on Petri dishes (Nunc, Denmark) at 37° C. in a humidified atmosphere containing 5% CO2. Cells were replicated every 4 days and the medium changed once in-between.
Cytotoxicity has been evaluated on exponentially growing cells grown for 24 h in presence of the compounds to be tested. Briefly, 4000 cells were seeded in 96-well plates with 200 μL of complete medium; 24 hours later the medium was supplemented with a series of different concentrations of compounds and the contact maintained for 24 h. Compounds were dissolved in pure water and sterilised using polycarbonate membrane filters of 0.22 μm (Millipore, Molsheim, France). The cells were then allowed to re-grow for 48 hours; viable and metabolically active cells were quantitatively estimated by coloration with the MTT dye (1-(4,5-dimethylthyazol-2-yl)-3,5-diphenylformazan), Sigma-Aldrich Chimie, Saint-Quentin-Fallavier, France). The amount of substance allowing a 50% decrease in cell numbers is indicative of the cytotoxicity and represents the IC50 of compound.

Data set [1] is described as follows: Partition coefficient log D (pH 7.4), micro HPLC method, n-octanol/phosphate buffer. Conditions: n-octanol/phosphate buffer pH 7.4. Format: physicochemical. On the procedure: The relative log D (pH 7.4) in this study was assessed by the micro HPLC method which is disclosed in A microscale HPLC method for the evaluation of octanol-water partition coefficients in a series of new 2-amino-2oxazolines Pehourcq, F.; Thomas, J.; Jarry, C., J. Liq. Chromatogr. Relat. Technol. (2000), 23, 443-453.
These determinations were performed with a chromatographic apparatus (Spectra Series, San Jose, USA). A reversed phase column was used: a Stability RP18 (4.6×150 mm; 5 μm particle size) with a mobile phase consisting of acetonitrile (+1‰ trifluoroacetic acid)−water (+1‰ trifluoroacetic acid) (40:60 v/v).
The compound was partitioned between n-octanol (HPLC grade) and phosphate buffer (pH=7.4). Octanol was presatured with buffer, and conversely. An amount of 1 mg of the compound was dissolved in an adequate volume of methanol in order to achieve 1 mg/mL stock solutions. Then, an appropriate aliquot of this methanolic solution was dissolved in buffer to obtain final concentration of 100 μg/mL. Under the above described chromatographic conditions, 20 μL of this aqueous phase was injected into the chromatograph, leading to the determination of a peak area before partitioning (W0).
In screw-capped tubes, 2000 μL of the aqueous phase (Vag) was then added to 10 μL of n-octanol (Voct) at pH=7.4. […] Log D was calculated from the formula: log D=log [(W0−W1)Vaq/W1Voct].

A further data set has as its system MCF-7. As to the kind of experiment: Cell cycle arrest, propidium iodide flow cytometry, MCF-7. Format: cell-based, human. Here is the method:
10^6 Cells of A549, HCT-15 and MCF-7 cell lines have been seeded in Petri dishes with RPMI-1640 medium. 24 h later, SDD has been dissolved in water at a concentration of 20 μM and was directly added to the culture medium. Contact was maintained for 72 h. Then, cells have been detached by trypsinization, collected and rinsed by PBS and counted on hemocytometer. Cells were centrifuged for 5 min at 1500 rpm, then resuspended in a defined volume of PBS to obtain 2.5×10^6 cell/mL. 100 μL of cell suspension was digested to nuclei by trypsin for 10 min. Then, a solution containing trypsin inhibitor and RNAse was added to cell suspension and left for 10 min. Finally, cells were stained by propidium iodide and were analysed by flow-cytometry apparatus. Distribution of cells among the different phases of the cycle was determined by the procedure disclosed in: A detergent-trypsin method for preparation of nuclei for flow cytometric DNA analysis. Vindelov, L.; Christensen, I.; Nissen, N.; Cytometry (1983), 3, 323-327.
• G0G1: cell in the phase of GOG1 • G2M: cells in the phase of G2M • S: cells in the phase of DNA synthesis • Sub G1: apoptotic cells • SUP G2M: diploidic cells
In general terms: In flow cytometry, cells or beads pass a laser one at a time.

Data set [2] has as its system DNA topoisomerase II (Topo II). As to the kind of experiment: Topo II catalytic activity, decatenation of kDNA. Format: biochemical. Conditions: 1, 10, 100 and 1000 μM; dose independent. Here is the method:
Test for revelation of the possible inhibitory effect of SDD on Topo II catalytic activity has been undertaken by decatenation of a catenated DNA substrate originating from Trypanosoma kinetoplasts (kDNA, TopoGen) into relaxed DNA forms.
The following standard reaction mixture contained 40 mM Tris/HCl pH 7.4, 10 mM MgCl2, 0.5 mM dithiothreitol, 1 mM ATP and […] kDNA has been carried out.
The reaction was initiated by the addition of 0.35 M NaCl nuclear extract and stopped after 20 min incubation at 37° C. by adding a denaturating solution containing 30% glycerol, 1% SDS, 0.5 mg/ml bromphenol blue.
The samples were then electrophoresed on a 1% agarose gel in 40 mM Tris/acetic acid, pH 8.0 containing 2 mM EDTA and 0.1 μg/ml ethidium bromide, for 45 min at 80V.
A positive control for decatenation was a decatenated kDNA marker obtained from TopoGen, containing a mixture of two species of relaxed
DNA, open circular DNA and covalently closed circular DNA.
DNA was visualized under UV light and the various DNA forms were quantified by densitometric scanning using the device described above.
Etoposide was used as positive control, as it is described in the following publication: Differential stabilisation of topoisomerase-II-DNA cleavable complexes doxorubicine and etoposide in doxorubicin-resistant rat glioblastoma cells. […]

The mark [3] stands for this setting: MCF-7, SDD 20 μM, 72 h, percentage of total cell population.

One may read the IC50 as the point on the concentration scale where inhibition reaches its midpoint. A high value points to a need for much substance. In the data set with HCT-15 (colon cancer), `CCN1C[C@]2(COC)[C@H](O)C[C@H](OC)[C@]34C1[C@H]([C@H](OC)[C@H]23)[C@]1(OC(=O)CCCCCCC(=O)O[C@]23[C@H]5[C@@H](OC(=O)c6ccccc6)[C@](O)(C[C@H]5[C@@]56C7[C@@H]2[C@H](OC)[C@@H]5[C@](COC)(CN7CC)[C@H](O)C[C@@H]6OC)[C@@H](OC)[C@@H]3O)[C@H]2[C@@H](OC(=O)c3ccccc3)[C@](O)(C[C@H]24)[C@@H](OC)[C@@H]1O` [SDD, bis[O-(14-benzoylaconine-8-yl)]-suberate] gave an IC50 of 3.7 µM. Also, the “log D (pH 7.4)” value in data set [1] is given as 2.86. In addition, the “accumulation of cells in the G2M and S phases” value with MCF-7 (MCF-7, 20 μM) is recorded as “moderate accumulation”. Moreover, in the data set on MCF-7 (setting [3]), the ALL % stood at 100%, the G0G1 % is 58.73%, the G2M % is 16.96% and the S % stood at 21.44%. For the same compound, in the data set on MCF-7 (setting [3]), the “SUP G2M % (diploidic cells)” value is 1.72% and the “SubG1 % (apoptotic cells)” value is 2.05%. Also, in the data set with MCF-7 (MCF-7, SDD concentration 5 times higher than IC50), the “cell distribution in the cycle” value is reported as “not altered”. Also, in the data set on MCF-7 (MCF-7, SDD, survival cells), the “Percentage of survival cells, G0G1 %” value came out at 60.46%; the “Percentage of survival cells, G2M %” value was 17.46%; the “Percentage of survival cells, S %” value was determined as 22.08%. Also, the “inhibition of Topo II activity compared to etoposide” value in data set [2] is “relatively moderate inhibition”.

The values above are taken from patent US8703790B2, “Bis [O-(14-benzoylaconine-8-yl)] esters” (priority 2008, dated 2014).
